Laboratory results published in patent publication US9296691B2, “Inhibitors of p75 receptor and their uses” (Horacio Uri Saragovi, priority 2010, dated 2016).

Assays:
B104 cells = assay: Pro-NTF killing assay (MTT), B104 cells; format: cell-based; conditions: pro-NTF 50 nM + I-B 20 μM, 72 hours
Experimental: The effect of I-B on the pro-apoptotic function of pro-NGF or pro-BDNF was tested in functional MTT assays measuring cell metabolism (FIG. 1B).
Cells (5,000 cells/well) were cultured in 96-well plates (Falcon, Lincoln Park, N.J.) in normal culture media (RPMI1640, Hepes, Glutamine, 5% serum). Wells were supplemented with NGF, BDNF, pro-NGF, or pro-BDNF (Alomone Labs) (50 nM final), in the presence or absence of I-B (20 μM final). Wells containing all culture conditions but no cells were used as blanks. The growth/survival profile of the cells was quantified using MTT (Sigma) 72 hours after plating. Optical density readings of MTT were done in a Benchmark Plus microplate Spectrophotometer (BioRad) at 595 nm with blanks subtracted.

[1] = test system: retinal ganglion cells (RGCs); assay: Glaucoma (episcleral vein cauterization) model, quantification of surviving RGCs; format: in vivo; conditions: rat glaucoma, intravitreal injections days 14 and 21, endpoint day 42; contralateral normal eye = 100%; control glaucoma 74-77%
Experimental: (§1) Wistar rats (female, 250-300 g; Charles River) were kept in a 12 hours dark-light cycle with food and water ad libitum. All animal manipulations were performed between 9 AM and 12 AM. Deep anesthesia was used during cauterization (induction of glaucoma), ON transection, fluorogold labeling, intraocular injection procedures, Optical Coherence Tomography measurements, and euthanasia (ketamine, xylazine, acepromazine injected intraperitoneally: 50/5/1 mg/kg, as per IACUC recommendations). For measuring IOP, light anesthesia was used (a gas mixture of Oxygen, 2% isofluorane mixture, at a rate of 2.5 liter/min, as per IACUC recommendations).
The episcleral vein cauterization (EVC) model of rat (Shi et al., 2007; Shi et al., 2008) was used. […]
(§2) For studies in the glaucoma animal model the injections were performed at days 14 and 21 after cauterization. […] Thus, in this paradigm there is pre-existing damage for 14 days before treatment (measured at ˜8% RGC death (Shi et al., 2007; Shi et al., 2008)); and the treatments require long-lived efficacy in the constant presence of retinal stress due to high IOP. […]
(§3) Quantification of labeled RGCs was performed as reported (Shi et al., 2007; Shi et al., 2008). […] Pictures for each freshly flat-mounted retina were taken using a Zeiss fluorescence microscope (Carl Zeiss Meditec, Jena, Germany), with 12 pictures/retina at 20× magnification. […]

[2] = test system: retinal ganglion cells (RGCs); assay: ON axotomy model, quantification of surviving RGCs (fluorogold labeled); format: in vivo; conditions: rat ON axotomy, one intravitreal injection 3 μg, day 14; contralateral normal eye = 100%; control axotomy 10%
Experimental: as §1
The ON axotomy model in the rat (Bai et al., 2010a) was used. […]
as §2, §3

For `CC(C)NC(=O)N(C(=O)Cn1cnc2c1c(=O)n(C)c(=O)n2C)C(C)C` [I-B, 1,3-Diisopropyl-1-[2-(1,3-dimethyl-2,6-dioxo-1,2,3,6-tetrahydro-purin-7-yl)-acetyl]-urea], the “cell viability (MTT) in presence of pro-NGF or pro-BDNF” value (B104 cells) was “prevented the loss of cell viability”, the RGCs surviving [1] was 92% and the RGCs surviving [2] was 37%.
